The results in this text go back to patent US12195473B2, “KRAS mutant protein inhibitors” (JACOBIO PHARMACEUTICALS CO., LTD, priority 2019, dated 2025).

pIC50: −log10 of the molar value.

The first experiment concerns HIS-KRAS (G12C). In kind it is biochemical. Conditions: GDP-loaded HIS-KRAS (G12C), 1 hour pre-incubation with compound, TR-FRET; read-out: SOS1 catalyzed nucleotide exchange IC50. A general note: Time-resolved FRET reads energy transfer from a long-lived donor to a nearby acceptor.
Turning to `C=CC(=O)N1CCN(c2c(C#N)c(=O)n(-c3c(C)ccnc3C(C)C)c3nc(-c4c(F)c(N)c(F)c(F)c4F)c(Cl)cc23)CC1` [Compound 6, 4-(4-acryloylpiperazin-1-yl)-7-(3-amino-2,4,5,6-tetrafluorophenyl)-6-chloro-1-(2-isopropyl-4-methylpyridin-3-yl)-2-oxo-1,2-dihydro-1,8-naphthyridine-3-carbonitrile], the pIC50 is 8.82.
The same measure, in the same setting: the figure for `C=CC(=O)N1CCN(c2c(C#N)c(=O)n(-c3c(C)ccnc3C(C)C)c3nc(-c4c(N)c(Cl)c(F)c(F)c4F)c(Cl)cc23)CC1` [Compound 3, 4-(4-acryloylpiperazin-1-yl)-7-(2-amino-3-chloro-4,5,6-trifluorophenyl)-6-chloro-1-(2-isopropyl-4-methylpyridin-3-yl)-2-oxo-1,2-dihydro-1,8-naphthyridine-3-carbonitrile] is 8.44; for `C=CC(=O)N1CCN(c2c(C#N)c(=O)n(-c3c(C)ccnc3C(C)C)c3nc(-c4c(N)c(Cl)c(F)c(Cl)c4F)c(Cl)cc23)CC1` [Compound 4, 4-(4-acryloylpiperazin-1-yl)-7-(2-amino-3,5-dichloro-4,6-difluorophenyl)-6-chloro-1-(2-isopropyl-4-methylpyridin-3-yl)-2-oxo-1,2-dihydro-1,8-naphthyridine-3-carbonitrile] it is 8.46.
On the same count and under the same terms, the same measure for `C=CC(=O)N1[C@H](C)CN(c2c(C#N)c(=O)n(-c3c(C)ccnc3C(C)C)c3nc(-c4c(F)c(F)c(F)c(N)c4Cl)c(Cl)cc23)C[C@@H]1C` [Compound 7, 4-((3S,5R)-4-acryloyl-3,5-dimethylpiperazin-1-yl)-7-(3-amino-2-chloro-4,5,6-trifluorophenyl)-6-chloro-1-(2-isopropyl-4-methylpyridin-3-yl)-2-oxo-1,2-dihydro-1,8-naphthyridine-3-carbonitrile]: 7.83.
Regarding `C=CC(=O)N1CCN(c2c(C#N)c(=O)n(-c3c(C)ccnc3C(C)C)c3nc(-c4c(Cl)c(N)c(F)c(F)c4Cl)c(Cl)cc23)CC1` [Compound 2, 4-(4-acryloylpiperazin-1-yl)-7-(3-amino-2,6-dichloro-4,5-difluorophenyl)-6-chloro-1-(2-isopropyl-4-methylpyridin-3-yl)-2-oxo-1,2-dihydro-1,8-naphthyridine-3-carbonitrile], the pIC50 is 8.18.
Same read-out and setting: the same measure for `C=CC(=O)N1[C@H](C)CN(c2c(C#N)c(=O)n(-c3c(C)ccnc3C(C)C)c3nc(-c4c(N)c(F)c(F)c(F)c4F)c(Cl)cc23)C[C@@H]1C` (single isomer, unassigned) [Compound 13-1]: 8.56; for `C=CC(=O)N1CCN(c2c(C#N)c(=O)n(-c3c(C)ccnc3C(C)C)c3nc(-c4c(N)c(F)c(F)c(F)c4Cl)c(Cl)cc23)C[C@H]1C` (single isomer, unassigned) [Compound 10-2]: 8.38.
Same read-out and setting: the figure for `C=CC(=O)N1CCN(c2c(C#N)c(=O)n(-c3c(C)ccnc3C(C)C)c3nc(-c4c(N)c(F)c(F)c(F)c4F)c(Cl)cc23)C[C@H]1C` [Compound 14, 4-((R)-4-acryloyl-3-methylpiperazin-1-yl)-7-(2-amino-3,4,5,6-tetrafluorophenyl)-6-chloro-1-(2-isopropyl-4-methylpyridin-3-yl)-2-oxo-1,2-dihydro-1,8-naphthyridine-3-carbonitrile] is 8.45; for `C=CC(=O)N1CCN(c2c(C#N)c(=O)n(-c3c(C)ccnc3C(C)C)c3nc(-c4c(N)c(F)c(F)c(F)c4F)c(Cl)cc23)[C@@H](C)C1` (single isomer, unassigned) [Compound 11-1] it is 7.53; for `C=CC(=O)N1CCN(c2c(C#N)c(=O)n(-c3c(C)ccnc3C(C)C)c3nc(-c4c(N)cccc4F)c(Cl)cc23)CC1` [Compound A, 4-(4-acryloylpiperazin-1-yl)-7-(2-amino-6-fluorophenyl)-6-chloro-1-(2-isopropyl-4-methylpyridin-3-yl)-2-oxo-1,2-dihydro-1,8-naphthyridine-3-carbonitrile, reference compound] it is 8.77.
On to `C=CC(=O)N1[C@H](C)CN(c2c(C#N)c(=O)n(-c3c(C)ccnc3C(C)C)c3nc(-c4c(N)c(F)c(F)c(F)c4F)c(Cl)cc23)C[C@@H]1C` [Compound 13, 4-((3S,5R)-4-acryloyl-3,5-dimethylpiperazin-1-yl)-7-(2-amino-3,4,5,6-tetrafluorophenyl)-6-chloro-1-(2-isopropyl-4-methylpyridin-3-yl)-2-oxo-1,2-dihydro-1,8-naphthyridine-3-carbonitrile], for which the pIC50 was 8.18.
The same measure, in the same setting: the figure for `C=CC(=O)N1CCN(c2c(C#N)c(=O)n(-c3c(C)ccnc3C(C)C)c3nc(-c4c(N)c(F)c(F)c(F)c4F)c(Cl)cc23)[C@@H](C)C1` (single isomer, unassigned) [Compound 11-2] is 8.68; for `C=CC(=O)N1[C@H](C)CN(c2c(C#N)c(=O)n(-c3c(C)ccnc3C(C)C)c3nc(-c4c(N)c(F)c(F)c(F)c4F)c(Cl)cc23)C[C@@H]1C` (single isomer, unassigned) [Compound 13-2] it is 7.94.
The same measure, in the same setting: the same measure for `C=CC(=O)N1CCN(c2c(C#N)c(=O)n(-c3c(C)ccnc3C(C)C)c3nc(-c4c(N)c(F)c(F)c(F)c4F)c(Cl)cc23)C[C@H]1C` [Compound 9, 4-((R)-4-acryloyl-3-methylpiperazin-1-yl)-7-(2-amino-3,4,5,6-tetrafluorophenyl)-6-chloro-1-(2-isopropyl-4-methylpyridin-3-yl)-2-oxo-1,2-dihydro-1,8-naphthyridine-3-carbonitrile]: 8.64; for `C=CC(=O)N1CCN(c2c(C#N)c(=O)n(-c3c(C)ccnc3C(C)C)c3nc(-c4c(N)c(F)c(F)c(F)c4Cl)c(Cl)cc23)C[C@H]1C` (single isomer, unassigned) [Compound 10-1]: 7.36; for `C=CC(=O)N1[C@H](C)CN(c2c(C#N)c(=O)n(-c3c(C)ccnc3C(C)C)c3nc(-c4ccccc4F)c(Cl)cc23)C[C@@H]1C` [Amgen 7.3, 4-((3S,5R)-4-acryloyl-3,5-dimethylpiperazin-1-yl)-6-chloro-7-(2-fluorophenyl)-1-(2-isopropyl-4-methylpyridin-3-yl)-2-oxo-1,2-dihydro-1,8-naphthyridine-3-carbonitrile, reference compound]: 7.98.
For `C=CC(=O)N1CCN(c2c(C#N)c(=O)n(-c3c(C)ccnc3C(C)C)c3nc(-c4c(F)c(F)c(F)c(N)c4Cl)c(Cl)cc23)[C@@H](C)C1` (single isomer, unassigned) [Compound 15-1], the negative-log IC50 (pIC50) was 8.16.
Same read-out and setting: the same measure for `C=CC(=O)N1[C@H](C)CN(c2c(C#N)c(=O)n(-c3c(C)ccnc3C(C)C)c3nc(-c4c(F)c(N)c(F)c(F)c4F)c(Cl)cc23)C[C@@H]1C` [Compound 8, 4-((3S,5R)-4-acryloyl-3,5-dimethylpiperazin-1-yl)-7-(3-amino-2,4,5,6-tetrafluorophenyl)-6-chloro-1-(2-isopropyl-4-methylpyridin-3-yl)-2-oxo-1,2-dihydro-1,8-naphthyridine-3-carbonitrile]: 8.18; for `C=CC(=O)N1CCN(c2c(C#N)c(=O)n(-c3c(C)ccnc3C(C)C)c3nc(-c4c(F)c(F)c(F)c(N)c4Cl)c(Cl)cc23)[C@@H](C)C1` (single isomer, unassigned) [Compound 15-2]: 7.08; for `C=CC(=O)N1CCN(c2c(C#N)c(=O)n(-c3c(C)ccnc3C(C)C)c3nc(-c4c(F)c(F)c(F)c(N)c4Cl)c(Cl)cc23)CC1` (single isomer, unassigned) [Compound 12-1, 4-(4-acryloylpiperazin-1-yl)-7-(3-amino-2-chloro-4,5,6-trifluorophenyl)-6-chloro-1-(2-isopropyl-4-methylpyridin-3-yl)-2-oxo-1,2-dihydro-1,8-naphthyridine-3-carbonitrile]: 7.80.

Staying with this experiment, now noted: read-out: SOS1 catalyzed nucleotide exchange IC50.
As to `C=CC(=O)N1CCN(c2c(C#N)c(=O)n(-c3c(C)ccnc3C(C)C)c3nc(-c4c(F)c(F)c(F)c(N)c4Cl)c(Cl)cc23)CC1` [Compound 12, 4-(4-acryloylpiperazin-1-yl)-7-(3-amino-2-chloro-4,5,6-trifluorophenyl)-6-chloro-1-(2-isopropyl-4-methylpyridin-3-yl)-2-oxo-1,2-dihydro-1,8-naphthyridine-3-carbonitrile], the pIC50 was 8.41.
Same read-out and setting: the figure for `C=CC(=O)N1CCN(c2c(C#N)c(=O)n(-c3c(C)ccnc3C(C)C)c3nc(-c4c(F)c(F)c(F)c(N)c4Cl)c(Cl)cc23)CC1` (single isomer, unassigned) [Compound 12-2, 4-(4-acryloylpiperazin-1-yl)-7-(3-amino-2-chloro-4,5,6-trifluorophenyl)-6-chloro-1-(2-isopropyl-4-methylpyridin-3-yl)-2-oxo-1,2-dihydro-1,8-naphthyridine-3-carbonitrile] is 8.70.

Usually pIC50 stands for the negative decadic logarithm of the IC50, by convention in mol/L.
